Results published in US12319655B2, “RAF kinase inhibitors and methods of use thereof” (Deciphera Pharmaceuticals, LLC, priority 2021, dated 2025).

Tests used:
H2405 cells = test: H2405 Cell Proliferation Assay (1); format: cell-based; details: Homo sapiens, NCI-H2405
Protocol: H2405 Cell Proliferation Assay (1)
H2405 cells (catalog #CRL-5994) are obtained from the American Type Culture Collect (ATTC, Manassas, VA). Briefly, cells were grown in RPMI 1640 supplemented with 5% characterized fetal bovine serum (Invitrogen, Carlsbad, CA) and 1% Penicillin/Streptomycin/L-Glutamine at 37° C., 5% CO2, and 95% humidity. Cells are expanded until reaching 70-95% confluency at which point they are sub-cultured or harvested for assay use. A serial dilution of test compound is dispensed into a 96-well black clear bottom plate in triplicate. Three thousand cells are added per well in 200 μL complete growth medium in the 96-well plate. Plates are incubated for 67-72 h at 37° C., 5% CO2, and 95% humidity. At the end of the incubation, 40 μL of a 440 μM solution of resazurin (Sigma, St. Louis, MO) in PBS is added to each well of the plate and plates are incubated for an additional 5-6 h at 37° C., 5% CO2, and 95% humidity. Plates are read on a Synergy2 or equivalent reader (Biotek, Winooski VT) using an excitation of 540 nm and an emission of 600 nm. Data is analyzed using Prism software (GraphPad, San Diego, CA) to calculate IC50 values.

[1] = target: B-Raf (V600E) (SEQ. ID NO: 4) kinase (Homo sapiens (Human), UniProt P15056, V600E); test: Biochemical Assay for B-Raf (V600E) (1); details: Table J, BRAF V600E, assay version (1); read-out: BRAF VE (1) IC50
Chain of B-Raf (V600E) (SEQ. ID NO: 4) kinase (P15056 416-766 V600E): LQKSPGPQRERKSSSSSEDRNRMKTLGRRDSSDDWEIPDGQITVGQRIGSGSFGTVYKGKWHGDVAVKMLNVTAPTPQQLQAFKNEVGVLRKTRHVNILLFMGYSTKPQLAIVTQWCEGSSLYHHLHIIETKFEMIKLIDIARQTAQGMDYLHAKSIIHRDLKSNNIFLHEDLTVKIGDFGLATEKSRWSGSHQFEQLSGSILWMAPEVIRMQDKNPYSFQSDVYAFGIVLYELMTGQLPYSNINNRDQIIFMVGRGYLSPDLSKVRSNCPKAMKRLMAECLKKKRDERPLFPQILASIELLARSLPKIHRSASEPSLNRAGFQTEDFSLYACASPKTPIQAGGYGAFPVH
Procedure, shortened: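 Serially diluted compounds tested against 0.03 nM enzyme with 30.1 nM MEK substrate and 1 mM ATP (Tris pH 7.5, 15 mM MgCl2), ATP use coupled to NADH loss via PK/LDH. A340 monitored continuously 6 h, 30 °C; IC50 fitted (four-parameter) from the 3–4 h rate versus no-compound and known-inhibitor controls.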

[2] = target: A-Raf kinase (SEQ. ID No: 1) (Homo sapiens (Human), UniProt P10398, Y301D/Y302D); test: Biochemical Assay for A-Raf (1); details: Table J, assay version (1); read-out: ARAF (1) IC50
Chain of A-Raf kinase (SEQ. ID No: 1) (P10398 other isoform, or with tags, fused parts or gaps Y301D (already in the parent)/Y302D (already in the parent)): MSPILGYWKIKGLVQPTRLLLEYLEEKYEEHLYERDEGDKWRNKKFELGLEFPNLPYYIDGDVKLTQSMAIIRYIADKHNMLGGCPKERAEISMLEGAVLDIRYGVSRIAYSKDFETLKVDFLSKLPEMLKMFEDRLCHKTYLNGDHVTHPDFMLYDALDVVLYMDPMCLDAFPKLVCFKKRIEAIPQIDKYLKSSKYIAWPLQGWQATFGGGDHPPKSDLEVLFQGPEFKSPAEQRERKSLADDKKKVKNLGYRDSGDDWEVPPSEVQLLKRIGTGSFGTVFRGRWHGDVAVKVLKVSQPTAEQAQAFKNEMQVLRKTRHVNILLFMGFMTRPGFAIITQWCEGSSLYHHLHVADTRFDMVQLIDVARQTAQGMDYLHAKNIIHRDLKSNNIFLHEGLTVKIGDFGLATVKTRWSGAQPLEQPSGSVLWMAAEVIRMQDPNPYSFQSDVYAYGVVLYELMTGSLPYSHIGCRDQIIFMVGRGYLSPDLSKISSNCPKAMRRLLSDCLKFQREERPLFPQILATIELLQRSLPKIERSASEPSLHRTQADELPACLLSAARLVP
Procedure, shortened: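 IC50 values were derived by four-parameter sigmoidal fitting of percent inhibition, calculated from reaction rates over the 4–5 h window. Absorbance at 340 nm was tracked for 6 h at 30 °C via coupled PK/LDH NADH depletion. Conditions: 1 mM ATP, 30.1 nM MEK substrate, 5.55 nM A-Raf (Y301D/Y302D), Tris pH 7.5, 1% DMSO.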

WM3928 cells = test: WM3928 Cell Proliferation Assay (1); format: cell-based
Protocol: WM3928 Cell Proliferation Assay (1)
WM3928 cells (#WM3928-01-0001) are obtained from Rockland Immunochemicals Inc (Gilbertsville, PA). Briefly, cells were grown in MCDB 153 medium (Sigma, #M7403, St. Louis, MO) supplemented with 20% Leibovitz's L-15 (ThermoFisher #11415-064, Waltham, MA), 2% heat inactivated fetal bovine serum (ThermoFisher, #A3840001, Waltham, MA), 5 μg/mL Insulin (Bovine Pancreas) (Sigma, #I0516, St. Louis, MO), 1.68 mM Calcium Chloride (Sigma, #C-34006, St. Louis, MO) and 1% Penicillin/Streptomycin/L-Glutamine (ThermoFisher #10378016, Waltham, MA) at 37° C., 5% CO2, and 95% humidity. Cells are expanded until reaching 70-95% confluency at which point they are subcultured or harvested for assay use. A serial dilution of test compound is dispensed into a 96-well black clear bottom plate in triplicate. Three thousand cells are added per well in 200 μL complete growth medium in the 96-well plate. Plates are incubated for 67-72 hours at 37° C., 5% CO2, and 95% humidity. At the end of the incubation, 40 μL of a 440 μM solution of resazurin (Sigma, #199303, St. Louis, MO) in PBS is added to each well of the plate and plates are incubated for an additional 6-7 hours at 37° C., 5% CO2, and 95% humidity. Plates are read on a Synergy2 or equivalent reader (Biotek, Winooski VT) using an excitation of 540 nm and an emission of 600 nm. Data is analyzed using Prism software (GraphPad, San Diego, CA) to calculate IC50 values.

IC50 (H2405 cells) [nM]	IC50 [1] [nM]	IC50 [2] [nM]	SMILES	IC50 (WM3928 cells) [nM]
≤ 100	≤ 100	1000 to 10000	Cc1ncc(NC(=O)c2ccnc(C(C)(C)C#N)c2)cc1-c1cccc(-c2cc(NC(=O)C3CC3)ncn2)c1 [Example 181]	≤ 100
100 to 500	≤ 100	1000 to 10000	CNC(=O)c1cc(-c2cc(-c3cc(NC(=O)c4ccnc(C5(C#N)CC5)c4)ccc3C)ncn2)ccn1 [Example 178]	≤ 100
100 to 500	≤ 100	1000 to 10000	COCC(=O)Nc1cc(-c2cccc(-c3cc(NC(=O)c4ccnc(C(F)(F)F)c4)cnc3C)n2)ccn1 [Example 130]	–
500 to 1000	≤ 100	1000 to 10000	Cc1ccc(NC(=O)c2ccnc(C(C)(C)C#N)c2)cc1-c1cccc(-c2ccnc3[nH]ccc23)c1 [Example 133]	–
≤ 100	≤ 100	500 to 1000	CC(=O)Nc1cc(-c2ccnc(-c3cc(NC(=O)c4ccnc(C(C)(C)C#N)c4)ccc3C)n2)ccn1 [Example 103]	≤ 100
1000 to 10000	≤ 100	1000 to 10000	Cc1ccc(NC(=O)c2ccnc(C(F)(F)F)c2)cc1-c1ccnc(-c2ccnc(N)c2)n1 [Example 122]	1000 to 10000
1000 to 10000	≤ 100	1000 to 10000	Cc1ncc(NC(=O)c2ccnc(C(C)(C)C#N)c2)cc1-c1cccc(-c2ccnc3[nH]cnc23)c1 [Example 111]	1000 to 10000
100 to 500	≤ 100	1000 to 10000	Cc1ccc(NC(=O)c2ccnc(C(C)(C)C#N)c2)cc1-c1ccnc(-c2ccnc(C(=O)NC3CC3)c2)c1 [Example 162]	100 to 500
≤ 100	≤ 100	1000 to 10000	CNC(=O)c1cc(-c2cc(-c3cc(NC(=O)c4ccnc(C(C)(C)C#N)c4)ccc3C)cc(C3CC3)n2)ccn1 [Example 163]	≤ 100
100 to 500	≤ 100	1000 to 10000	Cc1ccc(NC(=O)c2ccnc(C(C)(C)C#N)c2)cc1-c1cccc(-c2ccnc3[nH]ncc23)c1 [Example 134]	≤ 100
≤ 100	≤ 100	1000 to 10000	CC(=O)Nc1cc(-c2cncc(-c3cc(NC(=O)c4cc(C(F)(F)F)ccn4)ccc3C)n2)ccn1 [Example 124]	≤ 100
≤ 100	≤ 100	500 to 1000	Cc1ccc(NC(=O)c2ccnc(C(C)(C)C#N)c2)cc1-c1cncc(-c2ccnc(NC(=O)C3CC3)c2)n1 [Example 112]	≤ 100
–	≤ 100	500 to 1000	CC(=O)Nc1cc(-c2cncc(-c3cc(NC(=O)c4ccnc(C5(C#N)CC5)c4)ccc3C)n2)ccn1 [Example 146]	≤ 100
–	≤ 100	1000 to 10000	Cc1ncc(NC(=O)c2ccnc(C(C)(C)C#N)c2)cc1-c1cccc(-c2ncnc3c2CC(=O)N3)c1 [Example 110]	500 to 1000
–	≤ 100	1000 to 10000	Cc1ccc(NC(=O)c2ccnc(C(C)(C)C#N)c2)cc1-c1cncc(-c2ccnc(C(=O)NC3CC3)c2)n1 [Example 148]	500 to 1000
≤ 100	≤ 100	1000 to 10000	Cc1cc(F)c(NC(=O)c2ccnc(C(C)(C)C#N)c2)cc1-c1ccnc(-c2ccnc(NC=O)c2)c1 [Example 104]	≤ 100
–	≤ 100	500 to 1000	Cc1ccc(NC(=O)c2ccnc(C(C)(C)C#N)c2)cc1-c1cncc(-c2ccnc(NC=O)c2)n1 [Example 161]	≤ 100
100 to 500	≤ 100	1000 to 10000	CNC(=O)c1cc(-c2cc(-c3cc(NC(=O)c4ccnc(C(C)(C)C#N)c4)c(F)cc3C)ccn2)ccn1 [Example 176]	≤ 100

IC50 (H2405 cells) [nM]	IC50 [1] [nM]	IC50 [2] [nM]	SMILES	IC50 (WM3928 cells) [nM]
≤ 100	≤ 100	100 to 500	CC(=O)Nc1cc(-c2cc(-c3cc(NC(=O)c4ccnc(C(F)(F)F)c4)ccc3C)ccn2)ccn1 [Example 6]	–
–	≤ 100	100 to 500	Cc1ccc(NC(=O)c2ccnc(C(C)(C)C#N)c2)cc1-c1cncc(-c2ccnc(NC(=O)CC#N)c2)n1 [Example 154]	≤ 100
–	≤ 100	1000 to 10000	CC(=O)Nc1cc(-c2nccc(-c3cc(NC(=O)c4cnnc(C5CC5)c4)ccc3C)n2)ccn1 [Example 168]	500 to 1000
100 to 500	≤ 100	1000 to 10000	CNC(=O)c1cc(-c2cccc(-c3cc(NC(=O)c4ccnc(C(C)(C)C#N)c4)ccc3C)c2)ncn1 [Example 171]	≤ 100
–	≤ 100	100 to 500	CC(=O)Nc1cc(-c2nccc(-c3cc(NC(=O)c4ccnc(C5(C#N)CC5)c4)ccc3C)n2)ccn1 [Example 151]	≤ 100
≤ 100	≤ 100	100 to 500	Cc1ccc(NC(=O)c2ccnc(C3(C#N)CC3)c2)cc1-c1ccnc(-c2ccnc(NC(=O)C3CC3)c2)n1 [Example 180]	≤ 100
100 to 500	≤ 100	1000 to 10000	Cc1ncc(NC(=O)c2ccnc(C(C)(C)C#N)c2)cc1-c1cccc(-c2ncnc3[nH]ncc23)c1 [Example 129]	100 to 500
–	≤ 100	500 to 1000	Cc1ncc(NC(=O)c2cccc(C(F)(F)F)c2)cc1-c1cccc(-c2ccnc(NC(=O)CC#N)c2)c1 [Example 97]	≤ 100
500 to 1000	≤ 100	1000 to 10000	CNC(=O)c1cc(-c2nccc(-c3cc(NC(=O)c4ccnc(C(C)(C)C#N)c4)c(F)cc3C)n2)ccn1 [Example 166]	–
–	≤ 100	100 to 500	Cc1ccc(NC(=O)c2ccnc(C(C)(C)C#N)c2)cc1-c1nccc(-c2ccnc(NC(=O)C3CC3)c2)n1 [Example 169]	≤ 100
1000 to 10000	≤ 100	1000 to 10000	Cc1ncc(NC(=O)c2ccnc(C3CC3)c2)cc1-c1cccc(-c2ncnc3[nH]ncc23)c1 [Example 131]	1000 to 10000
–	≤ 100	100 to 500	CC(=O)Nc1cc(-c2nccc(-c3cc(NC(=O)c4cccc(C(C)(C)C#N)c4)ccc3C)n2)ccn1 [Example 150]	≤ 100
–	≤ 100	1000 to 10000	Cc1ccc(NC(=O)c2ccnc(C(F)F)c2)cc1-c1cncc(-c2ccnc(NC(=O)C3CC3)c2)n1 [Example 117]	≤ 100
–	≤ 100	1000 to 10000	Cc1ncc(NC(=O)c2ccnc(C(C)(C)C#N)c2)cc1-c1cccc(-c2ccnc(NC(=O)C3CC3)c2)n1 [Example 172]	≤ 100
≤ 100	≤ 100	1000 to 10000	Cc1ccc(NC(=O)c2cccc(C(C)(C)C#N)c2)cc1-c1cc(OCCO)nc(-c2ccnc3c2CC(=O)N3)c1 [Example 108]	≤ 100
≤ 100	≤ 100	1000 to 10000	CC(=O)Nc1cc(-c2cncc(-c3cc(NC(=O)c4cccc(C(C)(C)C#N)c4)ccc3C)n2)ccn1 [Example 125]	≤ 100
–	≤ 100	500 to 1000	CC(=O)Nc1cc(-c2cncc(-c3cc(NC(=O)c4ccnc(C5CC5)c4)ccc3C)n2)ccn1 [Example 145]	≤ 100
